For orientation: pKa means the pH at which an ionisable group is half protonated. A low value points to a stronger acid or weaker base.

Data set [1] in a line: Dissociation constant, pKa of the compound. The format is physicochemical.
Data set [2] can be described thus: Drug uptake in lysosomes of BPAEC at 1 uM after 30 mins by fluorescence microscopy. The format is ADME, Bos taurus, Lysosome. Particulars: cattle, 0.5 h; call rule not given here.

The molecule `CCN(CC)c1ccc(C2=C3C=CC(CCC(=O)OC)=[N+]3[B-](F)(F)n3c(CCC(=O)OC)ccc32)cc1` returned a pKa in data set [1] of 3.2. Besides, in data set [2], the Drug uptake result is “Active”.

In data set [1], `CC1=CC(C)=[N+]2C1=C(c1ccc(N(C)C)cc1)c1c(C)cc(C)n1[B-]2(F)F` showed a pKa of 3.2. The Drug uptake result in data set [2] is “Active”.

In data set [1], `CCN(CC)c1ccc(C2=C3C(C)=CC(C)=[N+]3[B-](F)(F)n3c(C)cc(C)c32)cc1` had a pKa of 5.2. In addition, the Drug uptake entry in data set [2] was “Active”.

In the case of `CCN(CCCC(=O)OC)c1ccc(C2=C3C(C)=CC(C)=[N+]3[B-](F)(F)n3c(C)cc(C)c32)cc1`, the pKa in data set [1] is 3.2. Moreover, the Drug uptake result in data set [2] was “Active”.

The record behind these values is ChEMBL document CHEMBL1777758, “Selective labeling and monitoring pH changes of lysosomes in living cells with fluorogenic pH sensors” (Bioorg Med Chem Lett, 2011).
